Assay results reported in US12085534B2, “Multiplexable super-resolution force spectroscopy using ultrasound methods and magnetic detection” (University of Houston System, priority 2018, dated 2024).

System: 11-bp DNA: ds(CCAAT CGA CCC)
Assay: SURFS force spectrum of drug-bound DNA duplex (dissociation voltage)
Format: binding
Conditions: daunomycin-11-bp DNA vs 12-bp DNA
Protocol: A piezo plate was placed on a piece of rubber. On top of the piezo, a water reservoir was constructed. The sample was mounted on a glass rod for scanning. The bottom of the sample, which contains the immobilized molecular system, makes contact with the water surface prior to ultrasound application. The water level was carefully monitored to be constant during experiment. […] A DNA duplex with 12-basepair (bp) was used to calculate the force resolution. The dissociation voltage was determined to be 0.204 V on the function generator, with ±0.001 V resolution. […] Because the acoustic radiation force is proportional to the ultrasound power, or V^2, the force resolution can be calculated as δF=(2δV/V)*F=(2*0.001/0.204)*45=0.5 pN (1)
In FIG. 4a, the force spectra of 12-bp DNA and daunomycin bound 11-bp DNA are compared. The two dissociation voltages were well distinguished, with the former at 0.204 V and the latter at 0.226 V. However, previous techniques of the prior art cannot distinguish the two forces, which are 45^±2 and 48^±2 pN respectively.

Compound: COc1cccc2c1C(=O)c1c(O)c3c(c(O)c1C2=O)C[C@@](O)(C(C)=O)C[C@@H]3O[C@H]1C[C@H](N)[C@H](O)[C@H](C)O1 [daunomycin]
- binding strength compared with 12-bp DNA: stronger than 12-bp DNA
